Test results from publication PMC11035632, “Discovery of gefitinib-1,2,3-triazole derivatives against lung cancer via inducing apoptosis and inhibiting the colony formation” (Scientific Reports, 2024).

Tests used:
Type in all cases: cell-based
NCI-H1299 cells = experiment: CCK-8 assay for cell proliferation and cytotoxicity, NCI-H1299; conditions: Homo sapiens, CCK-8, 48 h
Method: (§1) Three types of lung cells were seeded into 96-well plate at a density of 5 × 10^3 cells per well at logarithmic growth phase and cultured in 37 °C. […] After that, cell viability was determined according to the instruction of the CCK-8 assay. Next, 10 μL of CCK-8 solution was added to each well of the plate and incubate the plate for 1–4 h in the incubator. The absorbance was measured at 450 nm using a microplate reader (Bio-Tek). The percentage of viable cells was measured using the following formula where three independent experiments were performed: [(A450 sample − A450blank)/(A450 control − A450blank)] × 100%.

A549 cells = experiment: CCK-8 assay for cell proliferation and cytotoxicity, A549; conditions: Homo sapiens, CCK-8, 48 h
Method: A549 cells were cultured in a humidified incubator at 37 °C with 5% CO2 in Ham’s F-12 K (PM150910, Procell) supplemented with 10% FBS and 1% Penicillin Streptomycin.
as §1

NCI-H1437 cells = experiment: CCK-8 assay for cell proliferation and cytotoxicity, NCI-H1437; conditions: Homo sapiens, CCK-8, 48 h, read-out: IC50 1437
Method: as §1

| Structure (SMILES) | IC50 (NCI-H1299 cells) [µM] | IC50 (A549 cells) [µM] | IC50 (NCI-H1437 cells) [µM] |
| --- | --- | --- | --- |
| COc1cc2ncnc(Nc3cccc(-c4cn(Cc5ccc(Cl)cc5)nn4)c3)c2cc1OCCCN1CCOCC1 [Compound 7k] | 6.9 ± 0.23 | 4.91 ± 0.52 | 2.9 ± 0.23 |
| COc1cc2ncnc(Nc3cccc(-c4cn(Cc5ccccc5C)nn4)c3)c2cc1OCCCN1CCOCC1 [Compound 7l] | 4.92 ± 0.49 | 6.59 ± 0.2 | 0.84 ± 0.1 |
| COc1cc2ncnc(Nc3cccc(-c4cn(Cc5cc(C)cc(C)c5)nn4)c3)c2cc1OCCCN1CCOCC1 [Compound 7m] | 4.48 ± 0.41 | 6.54 ± 0.21 | 3.72 ± 0.17 |
| COc1cc2ncnc(Nc3cccc(-c4cn(Cc5cc(F)ccc5C#N)nn4)c3)c2cc1OCCCN1CCOCC1 [Compound 7n] | 6.02 ± 0.24 | 3.78 ± 0.03 | 4.67 ± 0.28 |
| COc1cc(Cn2cc(-c3cccc(Nc4ncnc5cc(OC)c(OCCCN6CCOCC6)cc45)c3)nn2)cc(OC)c1 [Compound 7o] | 6.78 ± 0.41 | 12 ± 0.15 | 5.21 ± 0.13 |
| COc1cc2ncnc(Nc3cccc(-c4cn(Cc5cccc(I)c5)nn4)c3)c2cc1OCCCN1CCOCC1 [Compound 7p] | 5.04 ± 0.33 | 8.5 ± 0.34 | 4.93 ± 0.14 |
| COc1cc2ncnc(Nc3cccc(-c4cn(-c5ccccc5F)nn4)c3)c2cc1OCCCN1CCOCC1 [Compound 7q] | 7.68 ± 0.11 | 9.03 ± 0.15 | 7.21 ± 0.1 |
| COc1cccc(-n2cc(-c3cccc(Nc4ncnc5cc(OC)c(OCCCN6CCOCC6)cc45)c3)nn2)c1 [Compound 7r] | 9.35 ± 0.31 | 12.9 ± 0.25 | 6.21 ± 0.23 |
| COc1cc2ncnc(Nc3cccc(-c4cn(-c5cccc([N+](=O)[O-])c5)nn4)c3)c2cc1OCCCN1CCOCC1 [Compound 7s] | 9.68 ± 0.21 | 11 ± 0.25 | 8.21 ± 0.13 |
| COc1cc2ncnc(Nc3cccc(-c4cn(-c5ccc([N+](=O)[O-])cc5OC)nn4)c3)c2cc1OCCCN1CCOCC1 [Compound 7t] | 13 ± 0.23 | 13.5 ± 0.33 | 14.93 ± 0.14 |
